According to article PMC8536124 (International Journal of Molecular Sciences, 2021):

What was measured:
HL-60(TB) = assay: NCI-60 screening (SRB); assay type: cell-based, human; details: HL-60(TB), five-dose
Breast cancer = assay: NCI-60 screening (SRB), subpanel; assay type: cell-based
From the text: (§1) The experimental data allow the assessment of the cytostatic effect, indicated by growth inhibition values ranging between 0 and 100, as well as of the cytotoxic effect, indicated by negative values.
(§2) The mean GI50 (molar concentration of the compound that inhibits 50% net cell growth), TGI (molar concentration of the compound leading to the total inhibition), and LC50 (molar concentration of the compound leading to 50% net cell death (presented in negative logarithm)) values across each cell line are shown in Table 2.
(§3) The selectivity index (SI), calculated as the ratio between the full panel MG_MID60 (μM) of compounds 4, 6, and 9 by their respective subpanels MG_MID of the cell line (μM), was introduced as a quantification tool for the selectivity of each compound in terms of anticancer effect (Table 3).
(§4) Primary anticancer assays were performed according to the NCI protocol, as described elsewhere (see e.g., http://dtp.nci.nih.gov accessed on 1 November 2018). The compounds were added at a single concentration, and the cell cultures were incubated for 48 h. The end point determinations were made with a protein-binding dye, sulforhodamine B (SRB). […] The percentage of growth was evaluated spectrophotometrically versus controls not treated with test agents after 48 h exposure and using SRB protein assay to estimate cell viability or growth. Three antitumor activity dose-response parameters were calculated for each cell line. Furthermore, mean graph midpoints (MG_MID) were calculated for each of the parameters, giving an average activity parameter over all cell lines for the tested compound. For the MG_MID calculation, insensitive cell lines were included with the highest concentration tested.

Colon Cancer = assay: NCI-60 screening (SRB), subpanel; assay type: cell-based
From the text: as §1, §2, §3, §4

Leukemia = assay: NCI-60 screening (SRB), subpanel; assay type: cell-based
From the text: as §1, §2, §3, §4

Melanoma = assay: NCI-60 screening (SRB), subpanel; assay type: cell-based
From the text: as §1, §2, §3, §4

NSC lung cancer = assay: NCI-60 screening (SRB), subpanel; assay type: cell-based
From the text: as §1, §2, §3, §4

Ovarian cancer = assay: NCI-60 screening (SRB), subpanel; assay type: cell-based
From the text: as §1, §2, §3, §4

Prostate cancer = assay: NCI-60 screening (SRB), subpanel; assay type: cell-based
From the text: as §1, §2, §3, §4

Renal Cancer = assay: NCI-60 screening (SRB), subpanel; assay type: cell-based
From the text: as §1, §2, §3, §4

HT29 = assay: NCI-60 screening (SRB); assay type: cell-based, human
SW-620 = assay: NCI-60 screening (SRB); assay type: cell-based, human; details: five-dose
U251 = assay: NCI-60 screening (SRB); assay type: cell-based, human
LOX IMVI = assay: NCI-60 screening (SRB); assay type: cell-based, human; details: LOX IMVI, five-dose
MALME-3M = assay: NCI-60 screening (SRB); assay type: cell-based, human; details: MALME-3M, five-dose
SK-MEL-2 = assay: NCI-60 screening (SRB); assay type: cell-based, human; details: five-dose
SK-MEL-5 = assay: NCI-60 screening (SRB); assay type: cell-based, human
UACC-257 = assay: NCI-60 screening (SRB); assay type: cell-based, human; details: five-dose
A498 = assay: NCI-60 screening (SRB); assay type: cell-based, human; details: A498, five-dose
ACHN = assay: NCI-60 screening (SRB); assay type: cell-based, human; details: five-dose
CAKI-1 = assay: NCI-60 screening (SRB); assay type: cell-based, human; details: CAKI-1, five-dose
SN12C = assay: NCI-60 screening (SRB); assay type: cell-based, human; details: five-dose
TK-10 = assay: NCI-60 screening (SRB); assay type: cell-based, human; details: five-dose
HS 578T = assay: NCI-60 screening (SRB); assay type: cell-based, human; details: five-dose
MDA-MB-468 = assay: NCI-60 screening (SRB); assay type: cell-based, human; details: five-dose
[1] = Homo sapiens, read-out: LC50 (the source's name)

Q: Which results are given for `CCN1CCN(C(=O)[C@]23CCC(C)(C)C[C@H]2C2=CC[C@@H]4[C@@]5(C)C/C(=C/c6cccnc6)C(=O)C(C)(C)[C@@H]5CC[C@@]4(C)[C@]2(C)CC3)CC1` [Compound 6]?
A: TGI (HL-60(TB)): 9.02 µM; GI50 (HL-60(TB); Homo sapiens): 2.1 µM; CC50 (HL-60(TB); [1]): > 100 µM; TGI MG_MID (Breast cancer; Breast cancer subpanel, five-dose): 5.30 µM; SI (TGI) (Breast cancer; Breast cancer, MG_MID60/subpanel MG_MID): 1.17; GI50 (Breast cancer; Homo sapiens, Breast cancer subpanel, five-dose, read-out: GI50 MG_MID): 1.67 µM; CC50 (Breast cancer; Homo sapiens, Breast cancer subpanel, five-dose, read-out: LC50 MG_MID): 39.6 µM; TGI MG_MID (Colon Cancer; Colon Cancer subpanel, five-dose): 3.51 µM; SI (TGI) (Colon Cancer; Colon Cancer, MG_MID60/subpanel MG_MID): 1.99; GI50 (Colon Cancer; Homo sapiens, Colon Cancer subpanel, five-dose, read-out: GI50 MG_MID): 1.52 µM; CC50 (Colon Cancer; Homo sapiens, Colon Cancer subpanel, five-dose, read-out: LC50 MG_MID): 25.4 µM; CC50 (Leukemia; Homo sapiens, Leukemia subpanel, five-dose, read-out: LC50 MG_MID): > 100 µM; TGI MG_MID (Leukemia; Leukemia subpanel, five-dose): 5.10 µM; SI (TGI) (Leukemia; Leukemia, MG_MID60/subpanel MG_MID): 0.30; GI50 (Melanoma; Homo sapiens, Melanoma subpanel, five-dose, read-out: GI50 MG_MID): 1.54 µM; CC50 (Melanoma; Homo sapiens, Melanoma subpanel, five-dose, read-out: LC50 MG_MID): 9.2 µM; TGI MG_MID (Melanoma; Melanoma subpanel, five-dose): 3.21 µM; SI (TGI) (Melanoma; Melanoma, MG_MID60/subpanel MG_MID): 1.96; GI50 (NSC lung cancer; Homo sapiens, NSC lung cancer subpanel, five-dose, read-out: GI50 MG_MID): 1.91 µM; CC50 (NSC lung cancer; Homo sapiens, NSC lung cancer subpanel, five-dose, read-out: LC50 MG_MID): 29.7 µM; TGI MG_MID (NSC lung cancer; NSC lung cancer subpanel, five-dose): 5.83 µM; SI (TGI) (NSC lung cancer; NSCL cancer, MG_MID60/subpanel MG_MID): 1.08; GI50 (Ovarian cancer; Homo sapiens, Ovarian cancer subpanel, five-dose, read-out: GI50 MG_MID): 2.15 µM; CC50 (Ovarian cancer; Homo sapiens, Ovarian cancer subpanel, five-dose, read-out: LC50 MG_MID): 36.2 µM; SI (TGI) (Ovarian cancer; Ovarian Cancer, MG_MID60/subpanel MG_MID): 1.52; TGI MG_MID (Ovarian cancer; Ovarian cancer subpanel, five-dose): 4.14 µM; GI50 (Prostate cancer; Homo sapiens, Prostate cancer subpanel, five-dose, read-out: GI50 MG_MID): 1.42 µM; CC50 (Prostate cancer; Homo sapiens, Prostate cancer subpanel, five-dose, read-out: LC50 MG_MID): 8.01 µM; TGI MG_MID (Prostate cancer; Prostate cancer subpanel, five-dose): 3.34 µM; SI (TGI) (Prostate cancer; Prostate cancer, MG_MID60/subpanel MG_MID): 1.89; GI50 (Renal Cancer; Homo sapiens, Renal cancer subpanel, five-dose, read-out: GI50 MG_MID): 1.97 µM; LC50 (50% net cell kill) (Renal Cancer; Homo sapiens, Renal cancer subpanel, five-dose, read-out: LC50 MG_MID): 20.2 µM; SI (TGI) (Renal Cancer; Renal Cancer, MG_MID60/subpanel MG_MID): 0.96; TGI MG_MID (Renal Cancer; Renal cancer subpanel, five-dose): 6.54 µM; GI50 (HT29; Homo sapiens, HT-29, five-dose): 1.71 µM; CC50 (HT29; Homo sapiens, HT-29, five-dose, read-out: LC50 (the source's name)): 44.5 µM; TGI (HT29; five-dose): 4.67 µM; GI50 (SW-620; Homo sapiens): 1.78 µM; CC50 (SW-620; [1]): 8.46 µM; TGI (SW-620): 3.88 µM; GI50 (U251; Homo sapiens, U-251, U251, five-dose): 1.58 µM; CC50 (U251; Homo sapiens, U-251, U251, five-dose, read-out: LC50 (the source's name)): 6.13 µM; Growth % (U251; U251 (CNS cancer), 1 dose 10 µM): −88.15%; TGI (U251; U251, five-dose): 3.11 µM; GI50 (LOX IMVI; Homo sapiens): 1.36 µM; CC50 (LOX IMVI; [1]): 5.45 µM; TGI (LOX IMVI): 2.73 µM; GI50 (MALME-3M; Homo sapiens): 1.53 µM; CC50 (MALME-3M; [1]): 5.54 µM; TGI (MALME-3M): 2.91 µM; GI50 (SK-MEL-2; Homo sapiens): 1.93 µM; CC50 (SK-MEL-2; [1]): 8.16 µM; TGI (SK-MEL-2): 3.96 µM; GI50 (SK-MEL-5; Homo sapiens, SK-MEL-5, five-dose): 1.63 µM; CC50 (SK-MEL-5; Homo sapiens, SK-MEL-5, five-dose, read-out: LC50 (the source's name)): 5.54 µM; Growth % (SK-MEL-5; SK-MEL-5, 1 dose 10 µM): −91.03%; TGI (SK-MEL-5; SK-MEL-5, five-dose): 3.00 µM; cell death (SK-MEL-5; SK-MEL-5 melanoma, 1 dose 10 µM): 88.15%; GI50 (UACC-257; Homo sapiens): 1.61 µM; CC50 (UACC-257; [1]): 33.8 µM; TGI (UACC-257): 4.29 µM; TGI (A498): 3.53 µM; GI50 (A498; Homo sapiens): 1.66 µM; CC50 (A498; [1]): 7.48 µM; GI50 (ACHN; Homo sapiens): 2.6 µM; LC50 (ACHN; Homo sapiens): 32.4 µM; TGI (ACHN): 10.5 µM; TGI (CAKI-1): 11.8 µM; GI50 (CAKI-1; Homo sapiens): 2.08 µM; CC50 (CAKI-1; [1]): 45.3 µM; GI50 (SN12C; Homo sapiens): 1.22 µM; CC50 (SN12C; [1]): 5.3 µM; TGI (SN12C): 2.54 µM; GI50 (TK-10; Homo sapiens): 3.86 µM; CC50 (TK-10; [1]): 54.1 µM; TGI (TK-10): 15.4 µM; GI50 (HS 578T; Homo sapiens): 1.83 µM; CC50 (HS 578T; [1]): > 100 µM; TGI (HS 578T): 5.37 µM; GI50 (MDA-MB-468; Homo sapiens): 1.28 µM; CC50 (MDA-MB-468; [1]): 19.7 µM; TGI (MDA-MB-468): 3.94 µM
